Laboratory results from patent US11479533B2, “Inhibitors of Rho associated coiled-coil containing protein kinase” (KADMON CORPORATION, LLC, priority 2017, dated 2022).

Key:
[1] = molecular target: recombinant ROCK2 (amino acids 1-552) (Homo sapiens (Human), UniProt O75116); test: Z'-lyte kinase assay, ROCK2; format: biochemical
Experimental: Determination of compounds ROCK inhibitory activity in vitro (Z'lyte assay): recombinant ROCK1 (amino acids 1-535) and ROCK2 (amino acids 1-552) proteins were purchased from ThermoFisher Scientific. Compounds activities were measured by Z'-lyte kinase kit (ThermoFisher Scientific) and IC50s were calculated.
Compounds activities were measured by Z'-lyte kinase kit (ThermoFisher Scientific). […] IC50s were calculated using the GraphPad Prism software with kinase activities data that were collected from 9 points serial dilution of compounds treatment. The ROCK inhibition in A7R5 cells and NIH3T3 (Acta2-Luc) cells was performed as described above.
The percent inhibition rate was calculated by normalizing the kinase activity value obtained with compound treatment against DMSO control value and then applied to the equation, […]. IC50's were calculated using the nonlinear regression curve fit function of the GraphPad Prism software with kinase activities data measured with 9 points 2-fold serial dilution of compounds treatment.

[2] = tested on: ppMlc (T18/S19) levels in A7R5 cells; test: A7R5 in-cell ELISA assay (ppMlc); format: cell-based, rat; details: Rattus norvegicus, A7R5, A7R5 cells, Table 2; read-out: pMLC IC50 (nM) A7R5
Experimental: Determination of compounds ROCK inhibitory activity in A7R5 cells: rat aortic smooth muscle cell line A7R5 cells were maintained and treated in DMEM medium with 10% of fetal bovine serum. Cells were seeded with density of 5,000 cells/well in 96-well plates for 24 hours and subsequently treated 90 min with testing compounds. Cells were then fixed and processed according to the In-Cell ELISA Colorimetric Detection Kit manual (Thermo Scientific).
A7R5 cells were treated with 9 points 2 fold serial dilution of compounds and ppMlc (T18/S19) levels were determined in order to calculate the cellular IC50s of the compounds.
An A7R5 in-cell ELISA assay was performed to determine ROCK inhibition of test articles. A7R5 cells were treated with 9 points 2-fold serial dilution of compounds and ppMlc (T18/S19) levels were determined to calculate cellular IC50 values of the compounds. […] A7R5 cells were treated with 9 points 2-fold serial dilution of compounds and ppMlc (T18/S19) levels were determined to calculate cellular IC50 values of the compounds using the nonlinear regression curve fit function of the GraphPad Prism software.

[3] = tested on: ACTA2-promoter-driven-luciferase in NIH3T3 cells; test: NIH3T3 Acta2-promoter driven-luciferase assay; format: cell-based; details: Mus musculus, plus TGFβ1, 24 hr, read-out: NIH3T3, Acta2-luc, IC50
Experimental: NIH3T3 cells Acta2-promoter driven-luciferase assay: A NIH3T3 cell line stably expressing a luciferase reporter driven by the human ACTA2 gene promoter (−1000-1 bp) was established (NIH3T3-Acta2-luciferase). The cells were plated to confluence and treated with the test compounds plus TGFβ1 for 24 hr. Cells were then lysed and luciferase activity was measured using the LightSwitch luciferase kit from Active Motif.
ROCK inhibitors can be effectively rank ordered by ACTA2-promoter-driven-luciferase reporter cell assay. NIH3T3 cells stably expressing ACTA2-promoter-driven-luciferase were applied to measure ROCK compounds functional IC50's in cells. Cells were plated in 96 well plates to confluence and treated with 9 points serial dilution of compounds in combination with TGFβ1 for 24 hr. Luciferase activities were measured and compound's IC50's were calculated using the nonlinear regression curve fit function of the GraphPad Prism software. Compounds of the invention gave in cell IC50's under 200 nM, see FIG. 1c.

Chain of recombinant ROCK2 (amino acids 1-552) (O75116 1-552): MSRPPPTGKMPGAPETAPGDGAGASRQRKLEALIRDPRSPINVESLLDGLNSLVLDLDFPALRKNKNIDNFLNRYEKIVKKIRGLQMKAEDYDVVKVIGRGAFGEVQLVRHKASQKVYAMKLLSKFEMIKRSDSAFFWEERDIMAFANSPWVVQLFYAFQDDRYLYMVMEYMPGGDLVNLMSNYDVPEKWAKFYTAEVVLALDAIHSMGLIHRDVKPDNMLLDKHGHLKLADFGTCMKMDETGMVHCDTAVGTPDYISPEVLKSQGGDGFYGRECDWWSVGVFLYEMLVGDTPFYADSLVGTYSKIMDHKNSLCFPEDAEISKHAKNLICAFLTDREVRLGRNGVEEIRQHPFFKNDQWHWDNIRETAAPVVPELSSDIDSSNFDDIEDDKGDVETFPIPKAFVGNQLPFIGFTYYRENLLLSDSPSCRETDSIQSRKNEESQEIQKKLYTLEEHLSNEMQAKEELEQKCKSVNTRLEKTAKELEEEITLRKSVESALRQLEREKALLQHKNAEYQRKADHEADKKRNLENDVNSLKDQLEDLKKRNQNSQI

| IC50 [1] [nM] | IC50 [2] [nM] | SMILES | IC50 [3] [nM] |
| --- | --- | --- | --- |
| 46 | 382 | CN[C@@H](C(=O)Nc1cc(F)c(-c2cn[nH]c2)cc1OCCN(C)C)c1cccc(OC)c1 [Example 72, (R)—N-(2-(2-(dimethylamino)ethoxy)-5-fluoro-4-(1H-pyrazol-4-yl)phenyl)-2-(3-methoxyphenyl)-2-(methylamino)acetamide] | 984 |
| 1.6 | 15 | CN[C@H](C(=O)Nc1cc(F)c(-c2cn[nH]c2)cc1OCCN(C)C)c1cccc(OC)c1 [Example 73, (S)—N-(2-(2-(dimethylamino)ethoxy)-5-fluoro-4-(1H-pyrazol-4-yl)phenyl)-2-(3-methoxyphenyl)-2-(methylamino)acetamide] | 122 |
| 2.4 | 97 | COc1cccc(C(NCCN2CCOCC2)C(=O)Nc2ccc(-c3cn[nH]c3)cc2)c1 (stereo not drawn) [Example 50, N-(4-(1H-pyrazol-4-yl)phenyl)-2-(3-methoxyphenyl)-2-((2-morpholinoethyl)amino)acetamide] | 92 |
| 16 | 1670 | COc1cccc(C(NCC(=O)N(C)C)C(=O)Nc2ccc(-c3cn[nH]c3)cc2)c1 (stereo not drawn) [Example 39, N-(4-(1H-pyrazol-4-yl)phenyl)-2-((2-(dimethylamino)-2-oxoethyl)amino)-2-(3-methoxyphenyl)acetamide] | > 5000 |
| 107 | 1880 | CCN(CCOC)C(C(=O)Nc1ccc(-c2cn[nH]c2)cc1)c1cccc(OC)c1 (stereo not drawn) [Example 46, N-(4-(1H-pyrazol-4-yl)phenyl)-2-(ethyl(2-methoxyethyl)amino)-2-(3-methoxyphenyl)acetamide] | 1200 |
| 451 | > 5000 | CNC(C(=O)Nc1ccc(-c2cn[nH]c2)cc1)c1ccc(C(=O)O)cc1 (stereo not drawn) [Example 68, 4-(2-((4-(1H-pyrazol-4-yl)phenyl)amino)-1-(methylamino)-2-oxoethyl)benzoic acid] | > 5000 |
| 10 | 74 | COc1cccc(C(NCCN(C)C)C(=O)Nc2ccc(-c3cn[nH]c3)cc2)c1 (stereo not drawn) [Example 57, N-(4-(1H-pyrazol-4-yl)phenyl)-2-((2-(dimethylamino)ethyl)amino)-2-(3-methoxyphenyl)acetamide] | 175 |
| 68 | 1520 | COc1cccc(C(NCCOCC(F)(F)F)C(=O)Nc2ccc(-c3cn[nH]c3)cc2)c1 (stereo not drawn) [Example 54, N-(4-(1H-pyrazol-4-yl)phenyl)-2-(3-methoxyphenyl)-2-((2-(2,2,2-trifluoroethoxy)ethyl)amino)acetamide] | 2670 |
| 67 | 314 | COCCNC(C(=O)Nc1cc(F)c(-c2cn[nH]c2)cc1OCCN(C)C)c1cccc(OC)c1 (stereo not drawn) [Example 48, N-(2-(2-(dimethylamino)ethoxy)-5-fluoro-4-(1H-pyrazol-4-yl)phenyl)-2-((2-methoxyethyl)amino)-2-(3-methoxyphenyl)acetamide] | 1010 |
| 6.3 | 425 | CCNC(C(=O)Nc1ccc(-c2cn[nH]c2)cc1)c1cccc(OC)c1 (stereo not drawn) [Example 13, N-(4-(1H-pyrazol-4-yl)phenyl)-2-(ethylamino)-2-(3-methoxyphenyl)acetamide] | 1570 |
| 94 | 692 | COCCNC(C(=O)Nc1ccc(-c2cn[nH]c2)cc1)c1cccc(OC)c1 (stereo not drawn) [Example 25, N-(4-(1H-pyrazol-4-yl)phenyl)-2-((2-methoxyethyl)amino)-2-(3-methoxyphenyl)acetamide] | 663 |
| 1.2 | 65 | CN[C@@H](C(=O)Nc1ccc(-c2cn[nH]c2)cc1)c1ccc(Cl)cc1 [Example 65, (R)—N-(4-(1H-pyrazol-4-yl)phenyl)-2-(4-chlorophenyl)-2-(methylamino)acetamide] | 51 |
| 30 | 458 | CCNC(C(=O)Nc1ccc(-c2cn[nH]c2)cc1)c1ccc(F)cc1 (stereo not drawn) [Example 12, N-(4-(1H-pyrazol-4-yl)phenyl)-2-(ethylamino)-2-(4-fluorophenyl)acetamide] | 735 |
